The subject of one assay is CD4+ T cells. The assay is described as follows: Meta-analysis of published SARS-CoV-2 CD4 T cell epitope data curated in the IEDB (25 studies). The format is cell-based, human. The note with it: CD4R (D) Megapool, non-spike antigens; dominant = recognized in 3 or more donors/studies.
Regarding 2333 (ILLNKHIDAYKTFPP) [compound 2333], the Dominant entry was “Yes (more dominant epitopes are defined by being recognized by 3 or more donors/different studies)”.

With 2345 (QEEVQELYSPIFLIV) [compound 2345], the Dominant entry is reported as “Yes (more dominant epitopes are defined by being recognized by 3 or more donors/different studies)”.

Staying with this assay, now noted: CD4RE megapool peptides (non-spike SARS-CoV-2 CD4 epitopes); dominant = recognized by 3 or more donors/different studies.
As to 2616 (FYVYSRVKNLNSSRV) [compound 2616], the Dominant result was “Yes (more dominant epitopes are defined by being recognized by 3 or more donors/different studies)”.

Take 2617 (QFAYANRNRFLYIIK) [compound 2617]: the Dominant entry is “Yes (more dominant epitopes are defined by being recognized by 3 or more donors/different studies)”.

In the case of 2618 (VLAAVYRINWITGGI) [compound 2618], the Dominant entry is given as “Yes (more dominant epitopes are defined by being recognized by 3 or more donors/different studies)”.

With 2619 (YRINWITGGIAIAMA) [compound 2619], the Dominant entry is on record as “Yes (more dominant epitopes are defined by being recognized by 3 or more donors/different studies)”.

On to 2620 (CLVGLMWLSYFIASF) [compound 2620], for which the Dominant result was “Yes (more dominant epitopes are defined by being recognized by 3 or more donors/different studies)”.

2621 (MWLSYFIASFRLFAR) [compound 2621]: the Dominant entry is “Yes (more dominant epitopes are defined by being recognized by 3 or more donors/different studies)”.

2622 (TNILLNVPLHGTILT) [compound 2622]: the Dominant result is reported as “Yes (more dominant epitopes are defined by being recognized by 3 or more donors/different studies)”.

On to 2623 (SELVIGAVILRGHLR) [compound 2623], for which the Dominant entry is on record as “Yes (more dominant epitopes are defined by being recognized by 3 or more donors/different studies)”.

For “2624 (GAVILRGHLRIAGHHLGR) [compound 2624]”, the Dominant entry is “Yes (more dominant epitopes are defined by being recognized by 3 or more donors/different studies)”.

As to 2625 (LRGHLRIAGHHLGRC) [compound 2625], the Dominant entry is recorded as “Yes (more dominant epitopes are defined by being recognized by 3 or more donors/different studies)”.

Consider 2626 (RGHLRIAGHHLGRCD) [compound 2626], for which the Dominant result is given as “Yes (more dominant epitopes are defined by being recognized by 3 or more donors/different studies)”.

For 2627 (IAGHHLGRCDIKDLP) [compound 2627], the Dominant entry is on record as “Yes (more dominant epitopes are defined by being recognized by 3 or more donors/different studies)”.

As to 2629 (IKDLPKEITVATSRT) [compound 2629], the Dominant entry is given as “Yes (more dominant epitopes are defined by being recognized by 3 or more donors/different studies)”.

On to 2630 (KEITVATSRTLSYYK) [compound 2630], for which the Dominant entry is reported as “Yes (more dominant epitopes are defined by being recognized by 3 or more donors/different studies)”.

For the substance “2631 (TSRTLSYYKLGASQRVA) [compound 2631]”, the Dominant entry is recorded as “Yes (more dominant epitopes are defined by being recognized by 3 or more donors/different studies)”.

On to 2632 (SRTLSYYKLGASQRV) [compound 2632], for which the Dominant entry is recorded as “Yes (more dominant epitopes are defined by being recognized by 3 or more donors/different studies)”.

With 2634 (SYYKLGASQRVAGDS) [compound 2634], the Dominant result is “Yes (more dominant epitopes are defined by being recognized by 3 or more donors/different studies)”.

In the case of 2635 (LGASQRVAGDSGFAA) [compound 2635], the Dominant entry is on record as “Yes (more dominant epitopes are defined by being recognized by 3 or more donors/different studies)”.

Consider 2636 (SGFAAYSRYRIGNYK) [compound 2636], for which the Dominant entry is recorded as “Yes (more dominant epitopes are defined by being recognized by 3 or more donors/different studies)”.

On to 2637 (ASWFTALTQHGKEDL) [compound 2637], for which the Dominant entry is “Yes (more dominant epitopes are defined by being recognized by 3 or more donors/different studies)”.

As to 2638 (SWFTALTQHGKEDLK) [compound 2638], the Dominant entry is given as “Yes (more dominant epitopes are defined by being recognized by 3 or more donors/different studies)”.

With 2639 (DDQIGYYRRATRRIR) [compound 2639], the Dominant result is given as “Yes (more dominant epitopes are defined by being recognized by 3 or more donors/different studies)”.

In the case of 2640 (IGYYRRATRRIRGGD) [compound 2640], the Dominant result is recorded as “Yes (more dominant epitopes are defined by being recognized by 3 or more donors/different studies)”.

As for 2641 (YYRRATRRIRGGDGK) [compound 2641], the Dominant result is on record as “Yes (more dominant epitopes are defined by being recognized by 3 or more donors/different studies)”.

For 2643 (RWYFYYLGTGPEAGL) [compound 2643], the Dominant result is given as “Yes (more dominant epitopes are defined by being recognized by 3 or more donors/different studies)”.

Consider 2644 (NKDGIIWVATEGALN) [compound 2644], for which the Dominant result is recorded as “Yes (more dominant epitopes are defined by being recognized by 3 or more donors/different studies)”.

Take 2645 (KDGIIWVATEGALNT) [compound 2645]: the Dominant entry is reported as “Yes (more dominant epitopes are defined by being recognized by 3 or more donors/different studies)”.

Take 2646 (AIVLQLPQGTTLPKG) [compound 2646]: the Dominant entry was “Yes (more dominant epitopes are defined by being recognized by 3 or more donors/different studies)”.

With 2647 (AGNGGDAALALLLLD) [compound 2647], the Dominant result is on record as “Yes (more dominant epitopes are defined by being recognized by 3 or more donors/different studies)”.

Take 2648 (DAALALLLLDRLNQL) [compound 2648]: the Dominant result is listed as “Yes (more dominant epitopes are defined by being recognized by 3 or more donors/different studies)”.

Consider 2649 (LLLLDRLNQLESKMS) [compound 2649], for which the Dominant result is listed as “Yes (more dominant epitopes are defined by being recognized by 3 or more donors/different studies)”.

Consider 2650 (AAEASKKPRQKRTAT) [compound 2650], for which the Dominant entry is on record as “Yes (more dominant epitopes are defined by being recognized by 3 or more donors/different studies)”.

Turning to 2651 (KKPRQKRTATKAYNV) [compound 2651], the Dominant result is reported as “Yes (more dominant epitopes are defined by being recognized by 3 or more donors/different studies)”.

As for 2652 (KRTATKAYNVTQAFG) [compound 2652], the Dominant result is reported as “Yes (more dominant epitopes are defined by being recognized by 3 or more donors/different studies)”.

Turning to 2654 (LIRQGTDYKHWPQIA) [compound 2654], the Dominant result is reported as “Yes (more dominant epitopes are defined by being recognized by 3 or more donors/different studies)”.

Take 2655 (YKHWPQIAQFAPSAS) [compound 2655]: the Dominant result is given as “Yes (more dominant epitopes are defined by being recognized by 3 or more donors/different studies)”.

As to 2656 (WPQIAQFAPSASAFF) [compound 2656], the Dominant result is “Yes (more dominant epitopes are defined by being recognized by 3 or more donors/different studies)”.

Take 2657 (ASAFFGMSRIGMEVT) [compound 2657]: the Dominant entry was “Yes (more dominant epitopes are defined by being recognized by 3 or more donors/different studies)”.

In the case of “2658 (GMEVTPSGTWLTYTGAIKLD) [compound 2658]”, the Dominant result is given as “Yes (more dominant epitopes are defined by being recognized by 3 or more donors/different studies)”.

Turning to 2659 (PSGTWLTYTGAIKLD) [compound 2659], the Dominant entry is “Yes (more dominant epitopes are defined by being recognized by 3 or more donors/different studies)”.

Regarding 2660 (GTWLTYTGAIKLDDK) [compound 2660], the Dominant entry is recorded as “Yes (more dominant epitopes are defined by being recognized by 3 or more donors/different studies)”.

Consider 2661 (FKDQVILLNKHIDAY) [compound 2661], for which the Dominant entry was “Yes (more dominant epitopes are defined by being recognized by 3 or more donors/different studies)”.

In the case of 2662 (ILLNKHIDAYKTFPP) [compound 2662], the Dominant entry is given as “Yes (more dominant epitopes are defined by being recognized by 3 or more donors/different studies)”.

As for 2674 (QEEVQELYSPIFLIV) [compound 2674], the Dominant entry was “Yes (more dominant epitopes are defined by being recognized by 3 or more donors/different studies)”.
